Results reported in article PMC10120462, “Styrylquinazoline derivatives as ABL inhibitors selective for different DFG orientations” (Journal of Enzyme Inhibition and Medicinal Chemistry, 2023).
Entries after “also recorded” stand apart in the source; their conditions may differ.

Assays:
K562 cells [1] = experiment: Immunoblotting; type: cell-based, human; settings: 16 h; for STAT5 phosphorylation: at the concentrations used; for Inhibition of expression of Ser473 phosphorylated Akt / Cyclin E1 protein level: IS8 only at 25 µM; for Cyclin E1 protein level: IS10 40 and 20 µM
Source text: Changes in the expression of the BCR-ABL and ABL proteins and their downstream targets, such as STAT5, Src, Akt and Fyn after treatment with the tested compounds were also examined. As shown in Figure 7(B), no significant changes in the phosphorylation of BCR-ABL were observed after treatment with the tested styrylquinazolines. […] For reference inhibitors, there were greater changes in the expression of this protein. There were also interesting changes in the downstream targets of ABL, STAT5 and Src. […] Unfortunately, contrary to our assumptions and earlier results, IS1 was ineffective in inhibiting ABL, STAT5, and Src phosphorylation at the concentrations used. However, this derivative caused downregulation of Fyn expression, which could confirm its high inhibitory potential from in vitro kinase assays. […] Thus, these compounds were capable of blocking the pro-survival pathway facilitated by Akt kinase.
Prior to the experiment, K562 cells were seeded at a density of 500,000 cells per well in 3 cm Petri dishes (Nunc). […] After 16 h of exposure, cells were collected, centrifuged, and lysed on ice in complete RIPA buffer containing Halt Protease Inhibitor Cocktail, Halt Phosphatase Inhibitor Cocktail and 0.5 M EDTA (all from Thermo Scientific). Protein quantification was measured using a BCA Protein Assay Kit (Thermo Scientific) according to the manufacturer’s protocol. Equal amounts of the proteins were electrophoresed on SDS-page gels and transferred to nitrocellulose membranes. After blocking in 5% non-fat milk prepared in TTBS (Tris buffered saline with Tween 20), membranes were incubated overnight at 4 °C with specific primary antibodies (all from Cell Signalling) at a dilution of 1:1000 for c-ABL, phospho-c-ABL, Stat5, phospho-Stat5, cyclin E1, p27, PARP, AIF, BID, Src, Fyn, Akt, phospho-Akt, and at a dilution of 1:2000 for reference proteins (vinculin, β-actin and GAPDH). The next day, membranes were washed and incubated with horseradish peroxidase (HRP)-conjugated secondary antibodies for 1 h at room temperature. Chemiluminescence signals were recorded after staining with SuperSignal™ West Pico Chemiluminescent Substrate (Thermo Scientific) using a ChemiDoc™ XRS + System (BioRad). Experiments were performed four to five times. Densitometric analysis was performed using ImageJ software (Wayne Rasband, National Institutes of Health, USA).

Lyn B = target: T1, Lyn B (Homo sapiens, UniProt P07948); experiment: Tyrosine kinase assay (Kinase Selectivity System TK-2, ADP-Glo); type: biochemical; settings: 1 h incubation, mean ± SD of four experiments
T1 construct: purchased Promega
T1 sequence (P07948 1-491 isoform P07948-2): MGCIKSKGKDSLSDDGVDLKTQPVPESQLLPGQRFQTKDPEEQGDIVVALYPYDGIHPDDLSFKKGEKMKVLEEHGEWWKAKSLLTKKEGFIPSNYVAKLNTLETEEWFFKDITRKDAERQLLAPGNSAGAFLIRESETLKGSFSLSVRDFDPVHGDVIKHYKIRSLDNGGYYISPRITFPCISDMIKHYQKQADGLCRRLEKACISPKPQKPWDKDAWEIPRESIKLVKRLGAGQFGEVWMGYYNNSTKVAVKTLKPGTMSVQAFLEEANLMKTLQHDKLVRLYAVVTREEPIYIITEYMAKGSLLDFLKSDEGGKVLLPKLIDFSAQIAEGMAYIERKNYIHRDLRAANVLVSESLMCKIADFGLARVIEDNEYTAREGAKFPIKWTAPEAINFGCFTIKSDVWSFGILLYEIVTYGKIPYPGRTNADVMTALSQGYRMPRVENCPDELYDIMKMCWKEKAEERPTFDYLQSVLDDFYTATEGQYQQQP

K562 cells [2] = experiment: Analysis of mRNA expression (RT-qPCR); type: cell-based, human; settings: 16 h; IS1 50 µM, IS8 12 µM, IS10 20 µM, imatinib 2 µM, GNF-2 2 µM
Source text: In the next step, the inhibitory potential of the tested compounds at the gene and protein levels was verified in K562 cells. For this purpose, we examined changes in the expression of the ABL signalling pathway and ABL downstream targets after exposure to IS1, IS8 and IS10. […] The enhanced transcription of the ABL gene might be related to the low protein level that was reached after exposure to the tested drugs. Thus, the cellular machinery could induce increased protein synthesis to counteract the effects of inhibition. […] The second gene studied, SRC, is involved in signal transduction from growth factors and receptors. Similar to ABL, the Src protein has oncogenic activity and is overexpressed in cancer cells. It is also important to emphasise that both kinases form a specific direct signalling network, as […].
Reverse transcription was carried out with 1 μg total RNA using a ProtoScript M-MuLV First Strand cDNA Synthesis Kit (New England BioLabs). The RT-qPCR was performed using a CTX96 Real-Time PCR Detection System (Biorad) in a 10 μL reaction volume containing Luna Universal qPCR Master Mix (New England BioLabs), specific primer pair mix and cDNA. The PCR reaction was performed as follows: initial denaturation at 95 °C for 60 s; followed by 40 cycles of denaturation at 95 °C, 15 s; annealing (primer-specific temperature for 30 s) and extension at 72 °C for 30 s. Melting curve analysis was used to determine the specific PCR products. The results were analysed based on comparison of the expression of the target genes with the reference gene – HPRT1 using the 2^−^ΔΔ^CT method. Experiments were performed at least four times.

K562 cells [3] = experiment: Cell cycle assay (Muse Cell-Cycle Kit, flow cytometry); type: cell-based, human; settings: 16 h; for Fraction of cells in the G2/M phase: control 28.68%; for Population of cells in the G0/G1 phase: untreated 42.56%
Description: The interesting inhibitory potential of ABL kinase and the high antiproliferative activity of several styrylquinazoline derivatives prompted us to further investigate their mechanism of action.
K562 cells were seeded in 3 cm Petri dishes (Nunc) at a density of 150,000 cells per well and incubated under standard conditions at 37 °C for 24 h. […] After 16 h of treatment, assays were performed using a Muse Cell-Cycle Kit (Millipore) according to the supplier’s instructions. Briefly, leukaemia cells were collected, washed in cold PBS, and centrifuged. Cells were then fixed in ice-cold 70% ethanol and stored at −20 °C overnight. The next day, leukaemia cells were washed with cold PBS, centrifuged and resuspended in Muse™ Cell Cycle Reagent. Samples were incubated for 30 min at room temperature in the dark. After staining, the levels of cellular subpopulations in each cell cycle phase were determined using a Muse Cell Analyser (Millipore). Experiments were performed at least four times.

ABL = target: T2, ABL (Homo sapiens, UniProt P00519); experiment: Pharmacological synergy on the ABL enzyme model (ABL1 Kinase Assay); type: biochemical; settings: Chou-Talalay method
T2 construct: purchased Promega
T2 sequence (P00519 whole entry): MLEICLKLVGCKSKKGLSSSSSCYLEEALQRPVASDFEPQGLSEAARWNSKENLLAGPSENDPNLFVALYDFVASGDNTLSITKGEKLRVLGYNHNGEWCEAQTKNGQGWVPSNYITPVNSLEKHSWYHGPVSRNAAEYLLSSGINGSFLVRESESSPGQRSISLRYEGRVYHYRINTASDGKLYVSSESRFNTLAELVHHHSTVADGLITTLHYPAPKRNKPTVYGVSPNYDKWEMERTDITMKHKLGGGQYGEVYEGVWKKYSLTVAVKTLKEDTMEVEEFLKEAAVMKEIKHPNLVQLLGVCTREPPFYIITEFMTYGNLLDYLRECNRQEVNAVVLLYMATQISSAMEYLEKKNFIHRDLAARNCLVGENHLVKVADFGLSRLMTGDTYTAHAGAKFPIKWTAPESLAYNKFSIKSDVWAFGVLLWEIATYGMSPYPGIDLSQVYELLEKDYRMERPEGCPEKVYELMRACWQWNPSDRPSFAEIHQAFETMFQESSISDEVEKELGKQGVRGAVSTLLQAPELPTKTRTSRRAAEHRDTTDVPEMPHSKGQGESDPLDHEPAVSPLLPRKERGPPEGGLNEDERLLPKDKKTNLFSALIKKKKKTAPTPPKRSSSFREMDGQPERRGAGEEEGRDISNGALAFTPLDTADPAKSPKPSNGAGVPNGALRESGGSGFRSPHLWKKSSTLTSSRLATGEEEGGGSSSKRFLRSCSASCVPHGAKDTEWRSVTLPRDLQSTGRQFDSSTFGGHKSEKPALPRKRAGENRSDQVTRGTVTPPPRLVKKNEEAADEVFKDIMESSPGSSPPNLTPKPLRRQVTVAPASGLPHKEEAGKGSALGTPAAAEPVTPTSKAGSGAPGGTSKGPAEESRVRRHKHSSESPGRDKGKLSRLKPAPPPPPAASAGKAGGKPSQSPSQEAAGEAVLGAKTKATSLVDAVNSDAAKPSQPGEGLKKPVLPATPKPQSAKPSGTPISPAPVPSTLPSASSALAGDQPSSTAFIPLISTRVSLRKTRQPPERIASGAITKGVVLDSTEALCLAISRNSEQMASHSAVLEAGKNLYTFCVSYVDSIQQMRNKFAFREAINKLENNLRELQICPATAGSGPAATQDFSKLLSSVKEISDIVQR
Description: We selected the aforementioned reference inhibitors based on their different modes of interaction with the kinases. […] Thus, the results of this experiment may allow identification of the site where the IS1 inhibitor binds to ABL kinase.
Synergy experiments were performed analogously to our previous reports[36]^,[65]. Synergy was calculated by the Chou-Talay method (CompuSyn software)[66]^,[67]. Experiments were performed at least three times.

inhibition at 0.5 µM (Lyn B) [%] | SMILES | Src protein expression / phosphorylation (K562 cells [1]) | STAT5 phosphorylation (K562 cells [1]) | Expression of the ABL gene (mRNA) (K562 cells [2]) | SRC mRNA levels (K562 cells [2]) | Cell cycle arrest (phase) (K562 cells [3]) | ABL phosphorylation (K562 cells [1]) | AIF protein (K562 cells [1]) | Decrease of the level of BID (K562 cells [1]) | p27 expression (K562 cells [1]) | Inhibition of expression of Ser473 phosphorylated Akt (K562 cells [1]) | Cyclin E1 protein level (K562 cells [1]) | CCNE2 expression (mRNA) (K562 cells [2]) | Population of cells in the G0/G1 phase (K562 cells [3]; concentration not given) [%] | further results
0 | COc1ccccc1/C=C/c1nc(Sc2cccc(O)c2)c2ccccc2n1 [IS8, 3-{2-[(E)-2–(2-methoxyphenyl)ethenyl]quinazolin-4-ylthio}phenol] | almost two-fold decrease | – | – | – | arrested the cells in G2/M phase | significant decrease (about two-fold) | significant increase | approximately 2 fold | more than two-fold increase | more than two-fold | significantly downregulated | significant decrease | – | Inhibition of STAT5 phosphorylation at Tyr694 (K562 cells [1]; 12 and 6 µM): 1.5 fold; Fraction of cells in the G2/M phase (K562 cells [3]; 12 µM): 39.38%
0 | COc1ccccc1/C=C/c1nc(Sc2ccc3c(c2)OCO3)c2ccccc2n1 [IS10, 5-{2-[(E)-2–(2-methoxyphenyl)ethenyl]quinazolin-4-ylthio}-2H-1,3-benzodioxole] | almost two-fold decrease | – | significantly enhanced | – | – | significant decrease (about two-fold) | – | approximately 2 fold | more than two-fold increase | more than two-fold | significantly downregulated | significant decrease | 33.00 | Decrease in p-STAT5 expression (K562 cells [1]; 20 µM): more than three-fold decrease; Population of cells in the S phase (K562 cells [3]; concentration not given, control 23.66%): 12.85%; Fraction of cells in the G2/M phase (K562 cells [3]; concentration not given): 46.35%
67.1 ± 5.1 | COc1ccccc1/C=C/c1nc(Sc2ccccc2Cl)c2ccccc2n1 [IS1, 2-[(E)-2–(2-methoxyphenyl)ethenyl]-4–(2-chlorophenylthio)quinazoline] | ineffective | ineffective | slight non-significant decrease | significant decrease | cell cycle arrest in G0/G1 phase | ineffective | significant increase | – | – | – | – | – | 50.85 | Fyn expression (K562 cells [1]): downregulation; Effect on ABL inhibition of IS1 in combination with GNF-2 (ABL): significantly attenuated inhibition; also recorded: antagonistic outcome; Effect on ABL inhibition of IS1 in combination with dasatinib (ABL): virtually no effect; Effect on ABL inhibition of IS1 in combination with imatinib (ABL): synergistic effect

SMILES | inhibition at 0.5 µM (Lyn B) [%] | Src protein expression / phosphorylation (K562 cells [1]) | STAT5 phosphorylation (K562 cells [1]) | Expression of the ABL gene (mRNA) (K562 cells [2]) | SRC mRNA levels (K562 cells [2]) | Cell cycle arrest (phase) (K562 cells [3]) | ABL phosphorylation (K562 cells [1]) | AIF protein (K562 cells [1]) | Decrease of the level of BID (K562 cells [1]) | p27 expression (K562 cells [1]) | Inhibition of expression of Ser473 phosphorylated Akt (K562 cells [1]) | Cyclin E1 protein level (K562 cells [1]) | CCNE2 expression (mRNA) (K562 cells [2]) | Population of cells in the G0/G1 phase (K562 cells [3]; concentration not given) [%] | further results
NC(=O)c1cccc(-c2cc(Nc3ccc(OC(F)(F)F)cc3)ncn2)c1 [GNF-2, reference compound] | 0 | significant accumulation | stronger effect | significantly enhanced | significant decrease | inhibition of G0/G1 phase | – | – | – | – | – | – | – | – | –
